Experimental data taken from PMC6294118 (Pharmaceutical research, 2018).

Columns and labels:
hOCT2 = target: T1, hOCT2 (Homo sapiens, UniProt O15244); assay: Inhibition of hOCT2-mediated morphine uptake in HEK293-hOCT2 cells; format: cell-based; conditions: for Cmax,unbound/IC50 (hOCT2): ratio of literature Cmax,unbound to hOCT2 IC50
T1 sequence (O15244 1-555): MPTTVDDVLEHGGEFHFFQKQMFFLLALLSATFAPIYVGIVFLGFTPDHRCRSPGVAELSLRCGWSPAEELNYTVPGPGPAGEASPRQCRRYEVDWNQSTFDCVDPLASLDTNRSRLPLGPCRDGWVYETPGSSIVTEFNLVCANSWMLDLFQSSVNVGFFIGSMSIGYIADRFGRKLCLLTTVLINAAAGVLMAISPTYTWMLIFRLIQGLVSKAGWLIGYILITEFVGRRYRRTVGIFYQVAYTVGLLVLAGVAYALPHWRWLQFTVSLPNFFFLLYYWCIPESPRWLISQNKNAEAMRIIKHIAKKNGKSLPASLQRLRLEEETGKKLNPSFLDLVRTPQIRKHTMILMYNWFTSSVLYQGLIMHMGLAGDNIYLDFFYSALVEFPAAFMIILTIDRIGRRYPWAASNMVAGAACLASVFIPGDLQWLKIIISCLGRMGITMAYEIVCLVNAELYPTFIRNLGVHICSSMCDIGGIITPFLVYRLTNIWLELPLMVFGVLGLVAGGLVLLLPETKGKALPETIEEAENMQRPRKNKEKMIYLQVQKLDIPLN

hOCT1 [1] = target: T2, hOCT1 (Homo sapiens, UniProt O15245); conditions: for Cmax,unbound/IC50 (hOCT1): ratio of literature Cmax,unbound to hOCT1 IC50; for Cmax,unbound/IC50 (hOCT1, second ratio column): ratio to hOCT1 IC50, the values fit Cmax port,unbound/IC50
T2 sequence (O15245 1-554): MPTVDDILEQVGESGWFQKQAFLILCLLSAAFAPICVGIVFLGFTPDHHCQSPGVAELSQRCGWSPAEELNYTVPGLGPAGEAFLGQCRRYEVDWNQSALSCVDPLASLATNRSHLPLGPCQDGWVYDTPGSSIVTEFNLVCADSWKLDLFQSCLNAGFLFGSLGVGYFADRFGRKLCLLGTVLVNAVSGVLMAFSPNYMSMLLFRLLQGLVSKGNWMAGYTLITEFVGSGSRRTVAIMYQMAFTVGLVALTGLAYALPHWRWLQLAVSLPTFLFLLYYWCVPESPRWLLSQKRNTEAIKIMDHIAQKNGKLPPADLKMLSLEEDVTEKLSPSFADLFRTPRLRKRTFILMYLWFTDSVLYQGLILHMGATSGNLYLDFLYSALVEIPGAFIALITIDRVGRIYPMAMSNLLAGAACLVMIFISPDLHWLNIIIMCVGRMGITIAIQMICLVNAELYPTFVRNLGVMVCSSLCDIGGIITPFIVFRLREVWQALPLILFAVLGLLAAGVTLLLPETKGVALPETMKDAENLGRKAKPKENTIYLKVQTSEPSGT

hOCT1 [2] = target: T2, hOCT1; assay: cell-based
[3] = cited from earlier work; for Cmax port,unbound (maximal unbound plasma concentration in the portal vein): in vivo

SMILES | IC50 (hOCT2) | Cmax,unbound/IC50 (hOCT2) (hOCT2) | Cmax,unbound/IC50 (hOCT1) (hOCT1 [1]) | Cmax,unbound/IC50 (hOCT1, second ratio column) (hOCT1 [1]) | IC50 (hOCT1 [2]) | Cmax port,unbound (maximal unbound plasma concentration in the portal vein) [3] | Fraction of dose excreted as unchanged morphine in urine [3]
CN(C)CCC=C1c2ccccc2CCc2ccccc21 [Amitriptyline, amitriptyline] | 410 ± 50 nM | 0.02 | 0.005 | 2.28 | 1890 ± 770 nM | 4300 nM | 
CNCCC(Oc1ccc(C(F)(F)F)cc1)c1ccccc1 (stereo not drawn) [Fluoxetine, fluoxetine] | 3320 ± 760 nM | 0.003 | 0.001 | 0.08 | 9060 ± 3240 nM | 700 nM | 
CN(C)CCCN1c2ccccc2CCc2ccccc21 [Imipramine, imipramine] |  |  |  |  | 4030 ± 1620 nM | 4500 nM | 
CCc1c2c(nc3ccc(OC(=O)N4CCC(N5CCCCC5)CC4)cc13)-c1cc3c(c(=O)n1C2)COC(=O)[C@]3(O)CC [Irinotecan, irinotecan] |  |  |  |  | 1360 ± 430 nM |  | 
Cc1nccn1CC1CCc2c(c3ccccc3n2C)C1=O (stereo not drawn) [Ondansetron, ondansetron] |  |  |  |  | 270 ± 100 nM | 80 nM | 
CN1CC[C@]23c4c5ccc(O)c4O[C@H]2[C@@H](O)C=C[C@H]3[C@H]1C5 [morphine] |  |  |  |  |  |  | approximately 10%
